Assay results published in patent US11021413B2, “Benzylpropargylether as nitrification inhibitors” (BASF SE, priority 2014, dated 2021).

Test system: nitrification
Experiment: Inhibition of nitrification in soil (48 well plate, ammonium sulfate, colour reaction read at 540 nm)
Conditions: dose of 5±1 ppm; field soil; up to 72 hrs at room temperature; compared to control (DMSO only)
Description: The compounds of the invention have been tested as follows in terms of the inhibition of nitrification:
Soil was sampled fresh from a field (e.g. Limburgerhof), dried and sieved through a 500 μm sieve. Approximately 200 mg of soil were placed into each well of a 48 well plate. […] 6 μmol ammonium sulfate was added per well as well as 4.8 mg NaClO3.
Subsequently, the samples were incubated at room temperature for up to 72 hrs. After the incubation period 64 mg KCl were added and mixed. 25 μl of the supernatant were placed into a fresh plate and 260 μl of a color reaction solution (from Merck Nr 1.11799.0100) were added. Measurements were taken with a Tecan plate Reader at 540 nm wavelength.
Inhibition is calculated as x=% activity compared to control, and converted to 100-x to give the value of inhibition, rather than activity.

| Compound | IN (best inhibition value obtained for a compound) |
| --- | --- |
| C#CCOCc1ccc(C)cc1 [Compound 1-29] | 37% |
| C#CCOCc1ccccc1 [Compound 1-28] | 88% |
| C#CCOCc1ccc(I)cc1 [Compound 1-32] | 53% |
| C#CCOCc1ccc(COCC#C)cc1 [Compound 1-23] | 18% |
| C#CCOCc1ccc(OCCC)cc1 [Compound 1-27] | 59% |
| C#CCOCc1ccc(C(=O)N(C)C)cc1 [Compound 1-33] | 24% |
| C#CCOCc1ccc(C#N)cc1 [Compound 1-30] | 25% |
| C#CCOCc1ccc(F)cc1 [Compound 1-25] | 87% |
| C#CCOCc1ccc(OC(C)C)cc1 [Compound 1-24] | 18% |
| C#CCOCc1ccc(C(=O)O)cc1 [Compound 1-31] | 18% |
| C#CCOCc1ccc(OCC)cc1 [Compound 1-26] | 69% |

Same assay, conditions: dose of 10 ppm; field soil; up to 72 hrs at room temperature; compared to control (DMSO only)

| Compound | IN (best inhibition value obtained for a compound) |
| --- | --- |
| C#CCOC(Cn1cncn1)c1ccc(Br)cc1 (stereo not shown) [Compound 1-12] | 15% |
| C#CCOCc1ccc(Cl)cc1Cl [Compound 1-10] | 14% |
| C#CCOC(Cn1cncn1)c1ccc(Oc2ccc(Cl)cc2)cc1 (stereo not shown) [Compound 1-18] | 10% |
| C#CCOC(Cn1cncn1)c1ccc(Oc2ccc(Cl)cc2)cc1C(F)(F)F (stereo not shown) [Compound 1-7] | 11% |
| C#CCOC(CC(n1cncn1)C(C)(C)C)c1ccc(Cl)cc1Cl (stereo not shown) [Compound 1-22] | 11% |
| C#CCOCc1ccc(Oc2ccc(F)cc2)cc1 [Compound 1-4] | 15% |
| C#CCOCc1ccc(Oc2ccccc2)cc1 [Compound 1-3] | 11% |
| C#CCOCc1ccccc1F [Compound 1-5] | 27% |
| C#CCOCc1ccc(Br)cc1 [Compound 1-2] | 48% |
| C#CCOC(Cn1cncn1)c1ccc(F)cc1 (stereo not shown) [Compound 1-13] | 10% |
| C#CCOCc1ccc(Oc2ccc(Cl)cc2)cc1 [Compound 1-16] | 11% |
| C#CCOCc1cccc(OC)c1 [Compound 1-9] | 20% |
| C#CCOCc1ccc(OC)c(OC)c1 [Compound 1-1] | 15% |
| C#CCOC(c1ccccc1)C(CCCC)n1cncn1 (stereo not shown) [Compound 1-21] | 20% |
| C#CCOCc1ccc(Cl)cc1C [Compound 1-14] | 56% |
| C#CCOC(Cn1cncn1)c1cc(OC)c(OC)c(OC)c1 (stereo not shown) [Compound 1-20] | 10% |
| C#CCOC(Cn1cncn1)c1ccc(Oc2ccc(Cl)cc2)cc1Cl (stereo not shown) [Compound 1-6] | 10% |
| C#CCOCc1ccc(OC)cc1 [Compound 1-8] | 57% |
| C#CCOCc1ccc(Cl)cc1 [Compound 1-15] | 58% |

Same assay, conditions: dose of 10 ppm; same conditions as Example 1.1

| Compound | IN (inhibition value), comparative example |
| --- | --- |
| C#Cc1ccccc1 [Phenylacetylene, phenylacetylene, reference compound] | 7% |
